The structures appear in SMILES notation. Values after ≈ are worked out from the molar mass of the structure shown. Non-standard residues stand in square brackets, D forms with d. Residues, ends and D or L forms follow the SMILES beside them. ξ: configuration not given here. *: point of attachment. ξN = NC(=O)CC(N)C(=O)O; Boc = CC(C)(C)OC(=O)*

For this data set the following is noted: buffer; pH 7.4; 200.0 µM.
The solubility (kinetic) is solubility judged after dilution from a stock solution rather than from solid. In turn, `CCc1ccc(CCC(=O)Nc2ccc(Cl)cc2)o1` gave a kinetic solubility of 8.1 µg/mL (≈ 29.2 µM).
On to `c1ccc(OCCCn2ccnc2)cc1`, for which the kinetic solubility worked out at 25.1 µg/mL (≈ 124 µM).
Compound `COc1ccccc1Nc1c2c(nc3ccc(N)cc13)CCCC2` yielded a kinetic solubility of 47.2 µg/mL (≈ 148 µM).
For the compound `CCCN1CCOC(CC(=O)Nc2ccc([N+](=O)[O-])cc2)C1=O` (stereo not given), the kinetic solubility amounted to 38 µg/mL (≈ 118 µM).
As to `Cc1ccnc2nc(C(=O)OCC(=O)c3ccccc3)nn12`, the solubility (kinetic) is above 44.4 µg/mL.
`CCc1c(C)nc(SCC(=O)NC2CCCC2)[nH]c1=O` yielded a solubility (kinetic) above 44.3 µg/mL.
In the case of `O=c1c2ccccc2ncn1CCOc1ccccc1[N+](=O)[O-]`, the solubility (kinetic) worked out at 3.2 µg/mL (≈ 10.3 µM).
The compound `Clc1ccc(C(CCN2CCCC2)Cc2ccccc2)cc1` (stereo not given) had a kinetic solubility of 29.8 µg/mL (≈ 94.9 µM). Compared with the last compound, the solubility kinetic is about 9.3-fold higher.
In the case of `O=C(Nc1nccs1)c1cccnc1Cl`, the kinetic solubility was above 36 µg/mL.
`CN1CCCC(OC(=O)/C(C#N)=C/c2ccccc2)C1.Cl` (stereo not given) yielded a kinetic solubility above 46 µg/mL.
On to `O=C(O/N=C(/c1ccccc1)c1ccncc1)c1cccc(F)c1`, for which the solubility (kinetic) was determined as 2.1 µg/mL (≈ 6.56 µM).
As for `O=C(O)CNC(=O)/C(=C\c1ccco1)NC(=O)c1ccco1`, the solubility (kinetic) was above 45.6 µg/mL.
In the case of `N#Cc1cnc(Sc2ccccc2)nc1`, the solubility (kinetic) is 26 µg/mL (≈ 122 µM).
Compound `CN(C1CCS(=O)(=O)C1)S(=O)(=O)c1ccccc1` (stereo not given) displayed a kinetic solubility above 43.4 µg/mL.
`CSCCC(NC(=O)c1cccc(C)c1)C(=O)NCc1cccs1` (stereo not given) gave a kinetic solubility above 54.4 µg/mL.
The value for `CSc1ccccc1NC(=O)COc1ccccc1C` was below 0.6 µg/mL; that for `COc1ccc(C2=NOC(C(=O)Nc3cccc(O)c3)C2)cc1` (stereo not given) was 22.8 µg/mL (≈ 73 µM); that for `Cc1ccc2cccc(OCc3ccc(F)cc3)c2n1` was 6 µg/mL (≈ 22.4 µM).
Take `CCOC(=O)Nc1ccc2c(c1)N(C(=O)CN(C)C)c1ccccc1CC2.Cl`: the kinetic solubility worked out at 57.7 µg/mL.
`O=Cc1cn(CC(O)CN2CCCCC2)c2ccccc12` (stereo not given): the kinetic solubility is above 43 µg/mL.
On to `COc1ccc(CNC(=O)CCn2c(C)csc2=O)cc1`, for which the kinetic solubility is above 46 µg/mL.
The value for `O=C(CCCSc1nc2ccccc2[nH]1)NC1CCCCC1` was above 47.6 µg/mL; that for `Cc1ccc(C(=O)N(C)CC(=O)Nc2cccc(C)c2C)o1` was above 45.1 µg/mL; that for `CC(=O)c1c(C)nc(-c2ccccc2)nc1NC(=O)Cc1ccccc1` was 11 µg/mL (≈ 31.8 µM).
For the compound `CN1C(=O)/C(=C/c2ccc(O)c([N+](=O)[O-])c2)N(C)C1=S`, the kinetic solubility is 4.5 µg/mL (≈ 15.3 µM). Against the preceding compound, the solubility kinetic is about 2.4-fold lower.
In turn, `CCc1ccccc1N1CC(C(=O)Nc2cc(C)on2)CC1=O` (stereo not given) returned a kinetic solubility above 47 µg/mL.
The compound `CC(C)(C)N=C(NS(=O)(=O)c1cccs1)c1ccccc1` came in with a solubility (kinetic) above 48.4 µg/mL.
The value for `C=CCn1c(O)c(C(CC)=Nc2ccc(NC(C)=O)cc2)c(=O)[nH]c1=O` was above 53.5 µg/mL; that for `Cc1ccc2cc(C#N)c(N3CCN(C(=O)c4cccs4)CC3)nc2c1` was below 0.2 µg/mL; that for `O=[N+]([O-])c1ccc(-c2nc(NCC3CCCO3)c3ccccc3n2)cc1` (stereo not given) was 0.6 µg/mL (≈ 1.71 µM).
The compound `O=C(CSc1ccccc1)Nc1ccc(N2CCOCC2)c(F)c1` showed a solubility (kinetic) of 2.7 µg/mL (≈ 7.79 µM).
Regarding `O=[N+]([O-])c1ccc2oc(-c3ccccc3)nc2c1`, the kinetic solubility was below 0.3 µg/mL.
With `Cn1c(CO)cnc1S(=O)(=O)Cc1ccc(Cl)cc1`, the kinetic solubility was above 45.1 µg/mL.
`NC(=O)NC(CC(=O)NCCc1ccccn1)c1ccccc1Cl` (stereo not given) displayed a solubility (kinetic) above 52 µg/mL.
For `Cc1cccc2c1N(CCOc1ccccc1)C(=O)C2=O`, the kinetic solubility stood at 3.4 µg/mL (≈ 12.1 µM).
In the case of `COc1ccc(O)c(C2=Nc3ccccc3N=C(c3ccccc3)C2)c1`, the solubility (kinetic) is below 0.4 µg/mL.
Take `COc1ccc(/C=C2\Oc3cc(OC(=O)N4CCOCC4)ccc3C2=O)cc1`: the solubility (kinetic) was below 0.8 µg/mL.
Compound `Cc1ccc(C(=O)C(C)OC(=O)c2ccc(Cl)nc2)cc1` (stereo not given) displayed a solubility (kinetic) of 34.1 µg/mL (≈ 112 µM).
The compound `Cc1ccc(NC(=O)CCC(=O)N2CCOCC2)nc1` returned a solubility (kinetic) above 41.6 µg/mL.
In turn, `O=C(NCc1ccc2c(c1)OCO2)C(=S)N1CCOCC1` had a solubility (kinetic) above 46.3 µg/mL.
`Cc1cc(C(=O)COc2ccccc2C(N)=O)c(C)n1C1CC1`: the kinetic solubility turned out to be 7 µg/mL (≈ 22.4 µM).
Compound `Cc1ccc(C2C(C#N)=C(N)Oc3cc(C)oc(=O)c32)o1` (stereo not given) returned a solubility (kinetic) above 42.6 µg/mL.
Turning to `CCCCn1c(C)c(C(=O)OCC)c2c(CN3CCCC3)c(O)ccc21`, the solubility (kinetic) came out at 53.1 µg/mL (≈ 148 µM).
Consider `Cl.Clc1ccccc1CSC1=NCCN1`, for which the solubility (kinetic) is above 39.5 µg/mL.
For the compound `CCOc1ccc(NC(=S)NC(=O)/C=C/c2ccco2)cc1`, the solubility (kinetic) is below 0.3 µg/mL.
Consider `COc1ccc(C(=O)Nc2ccc(Nc3ccccc3)cc2)cc1[N+](=O)[O-]`, for which the solubility (kinetic) is below 0.3 µg/mL.
Compound `O=C(Nc1ccc2[nH]c(=O)[nH]c2c1)c1cccc([N+](=O)[O-])c1` yielded a kinetic solubility of 1.2 µg/mL (≈ 4.02 µM).
The value for `Cc1[nH]c(=O)[nH]c(=O)c1N1CCOCC1` was above 31.7 µg/mL; that for `Clc1cc(Cl)cc(CN2CCSCC2)c1` was 4.5 µg/mL (≈ 17.2 µM).
Turning to `OC1C2CN3CN(C2)CC1(c1ccccc1)C3` (stereo not given), the kinetic solubility is above 34.5 µg/mL.
`COc1ccc2nc(NC(=O)Nc3ccccc3)sc2c1` registered a kinetic solubility below 0.2 µg/mL.
The value for `CCOc1ccc(S(=O)(=O)NC2CCCCC2C)cc1` (stereo not given) was 37.5 µg/mL (≈ 126 µM); that for `CCSc1ncccc1C(=O)N[C@@H](CCSC)C(=O)OC` was 36.1 µg/mL (≈ 110 µM).
Take `CC(C)(C)S(=O)(=O)c1cnc(-c2cnccn2)nc1N`: the kinetic solubility was above 44 µg/mL.
`O=C(/C=C/c1ccccc1)Oc1cccc(C(=S)N2CCOCC2)c1`: the solubility (kinetic) was 4.6 µg/mL (≈ 13 µM).
For the compound `Cc1ccccc1NC(=S)N(Cc1cccs1)C1CCCC1`, the solubility (kinetic) was 13.3 µg/mL (≈ 40.2 µM).
With `CCOC(=O)CNC(=O)C(CC(N)=O)NC(=O)OC(C)(C)C` (stereo not given) (Boc-[ξN]-Gly-OEt), the solubility (kinetic) is above 47.6 µg/mL.
The compound `CC(=O)Nc1ccc(C(=O)Nc2ccc3c(c2)OCCO3)cc1` returned a solubility (kinetic) of 22.8 µg/mL (≈ 73 µM).
As to `CC1CC(C)CN(S(=O)(=O)c2ccc(C(=O)N(C)Cc3ccccc3)cc2)C1` (stereo not given), the kinetic solubility was 13.7 µg/mL (≈ 34.2 µM). This solubility kinetic lies about 1.7-fold lower than the previous one.
With `COc1ccc(CCNC(=O)c2cccn2C)cc1`, the solubility (kinetic) is 33.3 µg/mL (≈ 129 µM).
As to `COc1ccc(CNC(=O)C2CC(=O)N(C3CCCC3)C2)cc1` (stereo not given), the kinetic solubility is above 47.5 µg/mL.
`COc1cccc(CNC2CCCCCCC2)c1OC` registered a solubility (kinetic) of 31.6 µg/mL (≈ 114 µM).
On to `O=C(Nc1ccccc1C(F)(F)F)c1ccc2nccnc2c1`, for which the kinetic solubility is above 47.6 µg/mL.
As for `CCOC(=O)Cc1csc(NC(=O)Cc2ccc(Br)cc2)n1`, the kinetic solubility is 5.9 µg/mL (≈ 15.4 µM).
`COC(=O)c1cc(CNC(=O)CC(C)c2ccccc2)ccc1OC` (stereo not given) came in with a solubility (kinetic) above 51.2 µg/mL.
For the compound `CCOC(=O)c1[nH]cnc1C(=O)Nc1ccc(Cl)cc1`, the kinetic solubility came out at 2.2 µg/mL (≈ 7.49 µM).
Turning to `COc1cc(OC)cc(C(=O)NC2CC3CCC(C2)N3C)c1` (stereo not given), the solubility (kinetic) stood at 38.4 µg/mL (≈ 126 µM).
`O=C(CCCCl)N1CCc2[nH]c3ccccc3c2C1`: the solubility (kinetic) was above 41.5 µg/mL.
With `CCSCc1nc2ccccn2c1Br`, the kinetic solubility came out at 34.6 µg/mL (≈ 128 µM).
`c1ccc2c(-c3cncc4ccccc34)cncc2c1` had a solubility (kinetic) of 32.1 µg/mL (≈ 125 µM).
In the case of `Cc1cc(C)cc(NC(=O)C[n+]2ccccc2)c1.[Cl-]`, the solubility (kinetic) was above 41.5 µg/mL.
The value for `O=C(COc1ccccc1)NCCSCc1ccccc1Cl` was 14.7 µg/mL (≈ 43.8 µM); that for `CCOC(=O)c1sc(=NC(=O)CCSc2ccccc2)n(C)c1C` was below 0.4 µg/mL.
`O=C(O)c1nccnc1C(=O)Nc1ccccc1N1CCOCC1` yielded a solubility (kinetic) above 49.2 µg/mL.
`COc1ccc(-c2ocnc2C(=O)Nc2ccc3c(c2)CCC3)cc1` yielded a kinetic solubility of 1.7 µg/mL (≈ 5.08 µM).

(Values after PubChem BioAssay AID1996.)
